Measured values as given in US20250282799A1, “SUBSTITUTED PYRIDO[4,3-d]PYRIMIDINES AS KRAS MODULATORS” (Alterome Therapeutics, Inc., priority 2023, published 2025).

These compounds were tested on KRAS G12V dependent lung adenocarcinoma cell line, NCI-H441 (assay: Cellular pERK (Thr202/Tyr204) FRET/HTRF assay). Settings: Homo sapiens, NCI-H441, cellular pERK (Thr202/Tyr204) HTRF, NCI-H441 cells.
Type: cell-based
Summary of the method: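 Using a mix-and-read HTRF kit, phospho-ERK (Thr202/Tyr204) was detected in NCI-H441 lysates following 1 hr compound incubation at 37 °C, 5% CO2. Cells had been seeded overnight beforehand, and IC50 was derived by curve fitting.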

Compound | IC50
[2H]C([2H])(Oc1nc(N2CCOC[C@@H]3C(F)[C@@H]32)c2cc(F)c(-c3cc(N)cc(C)c3C(F)(F)F)c(F)c2n1)[C@@]12CCCN1C[C@H](F)C2 (stereo in doubt) [Example 170, 3-(6,8-difluoro-4-((1R,7R,8R)-8-fluoro-5-oxa-2-azabicyclo[5.1.0]octan-2-yl)-2-(((2R,7aS)-2-fluorotetrahydro-1H-pyrrolizin-7a(5H)-yl)methoxy-d2)quinazolin-7-yl)-5-methyl-4-(trifluoromethyl)aniline] | 500 to 10000 nM
[2H]C([2H])(Oc1nc(N2CCCO[C@H]3[C@H](F)[C@H]32)c2cnc(-c3cc(N)cc4c(F)cc(F)c(C#C)c34)c(F)c2n1)[C@@]12CCCN1C[C@H](F)C2 [Example 117, 5-ethynyl-6,8-difluoro-4-(8-fluoro-4-((1R,7S,8R)-8-fluoro-2-oxa-6-azabicyclo[5.1.0]octan-6-yl)-2-(((2R,7aS)-2-fluorotetrahydro-1H-pyrrolizin-7a(5H)-yl)methoxy-d2)pyrido[4,3-d]pyrimidin-7-yl)naphthalen-2-amine] | < 50 nM
C#Cc1c(F)c(F)cc2cccc(-c3ncc4c(N5CCOC[C@H]6[C@H](F)[C@H]65)nc(OC[C@]56CCCN5CC(=C(F)F)C6)nc4c3F)c12 [Example 107, (1S,7S,8S)-2-(2-(((R)-2-(difluoromethylene)tetrahydro-1H-pyrrolizin-7a(5H)-yl)methoxy)-7-(8-ethynyl-6,7-difluoronaphthalen-1-yl)-8-fluoropyrido[4,3-d]pyrimidin-4-yl)-8-fluoro-5-oxa-2-azabicyclo[5.1.0]octane] | 50 to 500 nM
[2H]C([2H])(Oc1nc(N2CC=CC[C@H]3[C@H](F)[C@H]32)c2cnc(-c3cc(N)cc4ccc(F)c(C#C)c34)c(F)c2n1)[C@@]12CCCN1C[C@H](F)C2 [Example 174, 5-Ethynyl-6-fluoro-4-(8-fluoro-4-((1S,7R,8S)-8-fluoro-2-azabicyclo[5.1.0]oct-4-en-2-yl)-2-(((2R,7aS)-2-fluorotetrahydro-1H-pyrrolizin-7a(5H)-yl)methoxy-d2)pyrido[4,3-d]pyrimidin-7-yl)naphthalen-2-amine] | < 50 nM
[2H]C([2H])(Oc1nc(N2CCOC[C@@H]3[C@@H](F)[C@@H]32)c2ccc(-c3cc(N)cc(C)c3C(F)(F)F)c(F)c2n1)[C@@]12CCCN1C[C@H](F)C2 [Example 182, 3-(8-fluoro-4-((1R,7R,8R)-8-fluoro-5-oxa-2-azabicyclo[5.1.0]octan-2-yl)-2-(((2R,7aS)-2-fluorotetrahydro-1H-pyrrolizin-7a(5H)-yl)methoxy-d2)quinazolin-7-yl)-5-methyl-4-(trifluoromethyl)aniline] | 500 to 10000 nM
[2H]C([2H])(Oc1nc(N2CC[C@H](C#N)C[C@@H]3[C@@H](F)[C@@H]32)c2cnc(-c3cc(N)cc4ccc(F)c(C#C)c34)c(F)c2n1)[C@@]12CCCN1C[C@H](F)C2 [Example 307, (1R,5R,7S,8R)-2-(7-(3-amino-8-ethynyl-7-fluoronaphthalen-1-yl)-8-fluoro-2-(((2R,7aS)-2-fluorotetrahydro-1H-pyrrolizin-7a(5H)-yl)methoxy-d2)pyrido[4,3-d]pyrimidin-4-yl)-8-fluoro-2-azabicyclo[5.1.0]octane-5-carbonitrile] | 50 to 500 nM
[2H]C([2H])(Oc1nc(N2CCOC[C@H]3[C@H](F)[C@H]32)c2cc(Cl)c(-c3cc(N)c(F)c(C)c3C(F)(F)F)c(F)c2n1)[C@@]12CCCN1C[C@H](F)C2 [Example 190, 5-(6-chloro-8-fluoro-4-((1S,7S,8S)-8-fluoro-5-oxa-2-azabicyclo[5.1.0]octan-2-yl)-2-(((2R,7aS)-2-fluorotetrahydro-1H-pyrrolizin-7a(5H)-yl)methoxy-d2)quinazolin-7-yl)-2-fluoro-3-methyl-4-(trifluoromethyl)aniline] | 50 to 500 nM
[2H]C([2H])(Oc1nc(N2CCOC[C@H]3[C@H](F)[C@H]32)c2cnc(-c3cc(N)c(F)c(C4CC4)c3C(F)(F)F)c(F)c2n1)[C@@]12CCCN1C[C@H](F)C2 [Example 270, 3-cyclopropyl-2-fluoro-5-(8-fluoro-4-((1S,7S,8S)-8-fluoro-5-oxa-2-azabicyclo[5.1.0]octan-2-yl)-2-(((2R,7aS)-2-fluorotetrahydro-1H-pyrrolizin-7a(5H)-yl)methoxy-d2)pyrido[4,3-d]pyrimidin-7-yl)-4-(trifluoromethyl)aniline] | 50 to 500 nM
[2H]C([2H])(Oc1nc(N2CCOC[C@H]3[C@H](F)[C@H]32)c2cnc(-c3cc(N)cc4cccc(C#C)c34)c(F)c2n1)[C@@]12CCCN1C[C@H](F)C2 [Example 268, 5-ethynyl-4-(8-fluoro-4-((1S,7S,8S)-8-fluoro-5-oxa-2-azabicyclo[5.1.0]octan-2-yl)-2-(((2R,7aS)-2-fluorotetrahydro-1H-pyrrolizin-7a(5H)-yl)methoxy-d2)pyrido[4,3-d]pyrimidin-7-yl)naphthalen-2-amine] | < 50 nM

Further lines, results first:

IC50 | Compound
500 to 10000 nM | Cc1c(F)c(N)cc(-c2ncc3c(N4CCCC[C@@H]5[C@@H](F)[C@@H]54)nc(OC[C@@]45CCCN4C/C(=C\F)C5)nc3c2F)c1C(F)(F)F [Example 399, 2-fluoro-5-(8-fluoro-4-((1R,7S,8R)-8-fluoro-2-azabicyclo[5.1.0]octan-2-yl)-2-(((S,Z)-2-(fluoromethylene)tetrahydro-1H-pyrrolizin-7a(5H)-yl)methoxy)pyrido[4,3-d]pyrimidin-7-yl)-3-methyl-4-(trifluoromethyl)aniline]
< 50 nM | [2H]C([2H])(F)Oc1c(F)ccc2cc(N)cc(-c3ncc4c(N5CCCC[C@H]6[C@H](F)[C@H]65)nc(OC[C@]56C/C(=C\F)CN5CCC65CC5)nc4c3F)c12 [Example 383, 6-fluoro-4-(8-fluoro-4-((1S,7R,8S)-8-fluoro-2-azabicyclo[5.1.0]octan-2-yl)-2-(((R,E)-6′-(fluoromethylene)tetrahydrospiro[cyclopropane-1,1′-pyrrolizin]-7a′(5′H)-yl)methoxy)pyrido[4,3-d]pyrimidin-7-yl)-5-(fluoromethoxy-d2)naphthalen-2-amine]
< 50 nM | [2H]C([2H])(Oc1nc(N2CCOC[C@H]3[C@H](F)[C@H]32)c2cnc(-c3cc(N)cc4ccc(F)c(C#C)c34)c(C)c2n1)[C@@]12CCCN1C[C@H](F)C2 [Example 329, 5-Ethynyl-6-fluoro-4-(4-((1S,7S,8S)-8-fluoro-5-oxa-2-azabicyclo[5.1.0]octan-2-yl)-2-(((2R,7aS)-2-fluorotetrahydro-1H-pyrrolizin-7a(5H)-yl)methoxy-d2)-8-methylpyrido[4,3-d]pyrimidin-7-yl)naphthalen-2-amine]
< 50 nM | C=C1CN2CCC3(CC3)[C@@]2(COc2nc(N3CCCC[C@H]4[C@H](F)[C@H]43)c3cnc(-c4cc(N)cc(Cl)c4C(F)(F)F)c(F)c3n2)C1 [Example 424, 3-chloro-5-(8-fluoro-4-((1S,7R,8S)-8-fluoro-2-azabicyclo[5.1.0]octan-2-yl)-2-(((R)-6′-methylenetetrahydrospiro[cyclopropane-1,1′-pyrrolizin]-7a′(5′H)-yl)methoxy)pyrido[4,3-d]pyrimidin-7-yl)-4-(trifluoromethyl)aniline]
< 50 nM | [2H]C([2H])(Oc1nc(N2CCOC[C@H]3[C@H](F)[C@H]32)c2cc(C(F)(F)F)c(-c3ccc(F)c4sc(N)c(C#N)c34)c(F)c2n1)[C@@]12CCCN1C[C@H](F)C2 (atropisomer, axis not shown; (aS)) [Example 365, 2-amino-7-fluoro-4-((S)-8-fluoro-4-((1S,7S,8S)-8-fluoro-5-oxa-2-azabicyclo[5.1.0]octan-2-yl)-2-(((2R,7aS)-2-fluorotetrahydro-1H-pyrrolizin-7a(5H)-yl)methoxy-d2)-6-(trifluoromethyl)quinazolin-7-yl)benzo[b]thiophene-3-carbonitrile]

Same assay, conditions: Homo sapiens, NCI-H441, cellular pERK HTRF, NCI-H441 (KRAS G12V) cells

IC50 | Compound
< 50 nM | [2H]C([2H])(Oc1nc(N2CCCC[C@H]3[C@H](F)[C@H]32)c2cnc(-c3cc(N)cc4ccc(F)c(C#C)c34)c(C)c2n1)[C@@]12CCCN1CC(=C)C2 [Example 457, 5-Ethynyl-6-fluoro-4-(4-((1S,7R,8S)-8-fluoro-2-azabicyclo[5.1.0]octan-2-yl)-8-methyl-2-(((S)-2-methylenetetrahydro-1H-pyrrolizin-7a(5H)-yl)methoxy-d2)pyrido[4,3-d]pyrimidin-7-yl)naphthalen-2-amine]
< 50 nM | C#Cc1c(F)ccc2cc(N)cc(-c3ncc4c(N5CCOC[C@H]6[C@H](F)[C@H]65)nc(OCC5CCC6COCCN65)nc4c3F)c12 (stereo partly drawn) [Example 477, 5-ethynyl-6-fluoro-4-(8-fluoro-4-((1S,7S,8S)-8-fluoro-5-oxa-2-azabicyclo[5.1.0]octan-2-yl)-2-((hexahydro-1H-pyrrolo[2,1-c][1,4]oxazin-6-yl)methoxy)pyrido[4,3-d]pyrimidin-7-yl)naphthalen-2-amine]

Same assay, conditions: Homo sapiens, NCI-H441, pERK HTRF, NCI-H441 cells (KRAS G12V)

IC50 | Compound
50 to 500 nM | [2H]C([2H])(Oc1nc(N2CCOC[C@@H]3[C@@H](F)[C@@H]32)c2cnc(-c3cc(N)cc4cc(F)c(F)c(C#C)c34)c(F)c2n1)[C@@]12CCCN1C[C@H](F)C2 [Example 27, 5-Ethynyl-6,7-difluoro-4-(8-fluoro-4-((1R,7R,8R)-8-fluoro-5-oxa-2-azabicyclo[5.1.0]octan-2-yl)-2-(((2R,7aS)-2-fluorotetrahydro-1H-pyrrolizin-7a(5H)-yl)methoxy-d2)pyrido[4,3-d]pyrimidin-7-yl)naphthalen-2-amine]

Same assay, conditions: cellular pERK HTRF, NCI-H441 (KRAS G12V) cells

IC50 | Compound
500 to 10000 nM | N#Cc1c(N)sc2c(F)ccc(-c3c(C(F)(F)F)cc4c(N5CCOC[C@H]6[C@H](F)[C@H]65)nc(OC[C@@]56CCCN5CC(=C(F)F)C6)nc4c3F)c12 (atropisomer, axis not shown) [Example 438, 2-amino-4-((R)-2-(((S)-2-(difluoromethylene)tetrahydro-1H-pyrrolizin-7a(5H)-yl)methoxy)-8-fluoro-4-((1S,7S,8S)-8-fluoro-5-oxa-2-azabicyclo[5.1.0]octan-2-yl)-6-(trifluoromethyl)quinazolin-7-yl)-7-fluorobenzo[b]thiophene-3-carbonitrile]
